# Measurements from publication PMC12142043, “Cell-based high-content approach for SARS-CoV-2 neutralization identifies unique monoclonal antibodies and PI3K pathway inhibitors” (Frontiers in Cell and Developmental Biology, 2025).
# Like-named read-outs stand apart in the source and are kept apart here.
# System: SARS-CoV-2 (USA-WA1/2020) in Calu-3 cells
# Format: cell-based
# [1] = high dose (10 µM), Calu-3, 48 h
# [2] = low dose (100 nM), Calu-3, 48 h
SMILES,"dsRNA signal, AU High [1]","dsRNA signal, AU Low [2]","dsRNA signal, AU High","dsRNA signal, AU Low"
COc1ccc(COc2cc3oc(=O)c4cc(C(C)O)ccc4c3cc2OC)cc1 (centres unmarked) [Palomid 529],5778.6 AU,4358.2 AU,–,–
c1cncc(CN2CCC(n3ncc4c(N5CCOCC5)nc(-c5ccc6[nH]ccc6c5)nc43)CC2)c1 [WAY-600],1003.4 AU,67106.4 AU,–,–
"CCCC(=O)Nc1ncnc2c1ncn2[C@@H]1O[C@@H]2COP(=O)([O-])O[C@H]2[C@H]1OC(=O)CCC.[Na+] [Dibutyryl-cAMP, sodium salt]",10702.1 AU,55803.3 AU,–,–
O=C(O)C[C@H](O)C[C@H](O)/C=C/c1c(C2CC2)nc2ccccc2c1-c1ccc(F)cc1 [Pitavastatin Calcium],16024.1 AU,23195.0 AU,–,–
N#C/C(=C/c1ccc(O)c(O)c1)C(=O)NCc1ccccc1 [AG-490],8748.3 AU,4415.8 AU,–,–
CN1CCN(C2CCN(C(=O)Nc3cc(Oc4ccc(NC(=O)C5(C(=O)Nc6ccc(F)cc6)CC5)c(F)c4)ccn3)CC2)CC1 [Golvatinib (E7050)],36777.1 AU,23267.5 AU,–,–
CC(C)(O)/C=C/C(=O)[C@](C)(O)[C@H]1[C@H](O)C[C@@]2(C)[C@@H]3CC=C4[C@@H](C=C(O)C(=O)C4(C)C)[C@]3(C)C(=O)C[C@]12C [Cucurbitacin I],39627.9 AU,39750.1 AU,–,–
Cc1cc2c(F)c(Oc3ncnn4cc(OC[C@@H](C)O)c(C)c34)ccc2[nH]1 [Brivanib (BMS-540215)],51042.4 AU,684.7 AU,–,–
COc1cc2ncnc(Nc3ccc(O)c(Br)c3)c2cc1OC [WHI-P154],5163.1 AU,0.0 AU,–,–
NC(=S)N/N=C/c1ncccc1N [Triapine],0.0 AU,17637.1 AU,–,–
CNC(=O)c1cc(Oc2ccc(NC(=O)Nc3ccc(Cl)c(C(F)(F)F)c3)c(F)c2)ccn1 [Regorafenib],93.0 AU,63322.3 AU,–,–
Cn1cc(-c2ccc3nnc(Sc4ccc5ncccc5c4)n3n2)cn1 [SGX-523],18702.9 AU,25732.4 AU,–,–
COc1cc2nccc(Oc3ccc(NC(=O)Nc4ccc(F)cc4F)c(F)c3)c2cc1OC [Ki8751],16810.1 AU,45822.4 AU,–,–
C=C1C[C@@]2(O)O[C@@]3(C[C@H]2C(C)C)[C@@H](C)CC[C@@H]13 [Curcumol],0.0 AU,41441.3 AU,–,–
COc1cc2c(Oc3ccc4[nH]c(C)cc4c3F)ncnc2cc1OCCCN1CCCC1 [Cediranib (AZD217)],1359.3 AU,15765.2 AU,–,–
CN1C/C=C/CCOc2cccc(c2)-c2ccnc(n2)Nc2cccc(c2)C1 [SB1317],1210.9 AU,26680.2 AU,–,–
COc1ccc(S(=O)(=O)N(CCO)c2ccccc2CN(C)C/C=C/c2ccc(Cl)cc2)cc1.O=P(O)(O)O [KN-93 Phosphate],4943.4 AU,2840.4 AU,–,–
CC(C)(C)c1cc(C=C(C#N)C#N)cc(Br)c1O [AG-1024],1211.9 AU,44737.5 AU,–,–
CN1CCN(Cc2ccc(-c3cnc4[nH]cc(-c5ccc6[nH]ccc6c5)c4c3)cc2)CC1 [URMC-099],20784.2 AU,7905.7 AU,–,–
CC(C)[C@H](CO)Nc1nc(Nc2cccc(Cl)c2)c2ncn(C(C)C)c2n1 [Purvalanol A],51443.1 AU,865.0 AU,–,–
O=C(O)CCCCC(CCSCc1ccccc1)SCc1ccccc1 (centres unmarked) [CPI-613],36.8 AU,25399.4 AU,–,–
CNC(=O)c1cc(Oc2ccc(NC(=O)c3cccc(C(F)(F)F)c3)cc2)ccn1 [SKLB610],126.4 AU,8430.0 AU,–,–
c1ccc2c(-c3cnn4cc(-c5ccc(N6CCNCC6)cc5)cnc34)ccnc2c1 [LDN-193189],30043.0 AU,7399.9 AU,–,–
O=[N+]([O-])c1ccc(Sc2cccc[n+]2[O-])c2nonc12 [NSC228155],18547.9 AU,54998.4 AU,–,–
Cn1cc(-c2[nH]c3cc(NC(=O)[C@H](N)C4CCCCC4)cc4c3c2C=NNC4=O)cn1 [PF-477736],45938.3 AU,24364.8 AU,–,–

SMILES,"dsRNA signal, AU High [1]","dsRNA signal, AU Low [2]","dsRNA signal, AU High","dsRNA signal, AU Low"
Cn1cc(/C=C2\C(=O)Nc3cccnc32)c2ccccc21 [GW441756],33214.4 AU,18067.5 AU,–,–
Oc1cc(CNC(=S)/C=C/c2cc(O)c(O)c(Br)c2)cc(O)c1O [NT157],7372.8 AU,11852.6 AU,–,–
COc1cc2c(N3CCN(C(=O)Nc4ccc(OC(C)C)cc4)CC3)ncnc2cc1OCCCN1CCCCC1.Cl [Tandutinib (MLN518) HCl],42444.4 AU,13615.8 AU,–,–
O=c1cc(N2CCOCC2)oc2c(-c3ccccc3)cccc12 [LY 294002],11164.3 AU,43579.3 AU,–,–
CNC(=O)Nc1ccc(-c2nc(N3CC4CCC(C3)O4)c3cnn(C4CCC5(CC4)OCCO5)c3n2)cc1 [WYE-125132 (WYE-132)],4894.7 AU,21738.1 AU,–,–
Cc1nc(Nc2cnn(C3CCNCC3)c2)nc2c1N(C)C(=O)c1cc3ccccc3cc1N2C [HTH-01-015],4731.3 AU,21129.9 AU,–,–
O=C(O)[C@]1(Cc2cccc(Nc3nccs3)n2)CC[C@@H](Oc2cccc(Cl)c2F)CC1 [MK-5108 (VX-689)],3258.6 AU,34308.8 AU,–,–
CCN(CCO)CCCOc1ccc2c(Nc3cc(CC(=O)Nc4cccc(F)c4)[nH]n3)ncnc2c1 [Barasertib (AZD1152-HQPA)],48647.4 AU,41038.0 AU,–,–
O=C(c1ccc(F)c(F)c1Nc1ccc(I)cc1F)N1CC(O)([C@@H]2CCCCN2)C1 [Cobimetinib],1412.8 AU,21814.8 AU,–,–
Cc1ccc(-n2nc(C(C)(C)C)cc2NC(=O)Nc2ccc(OCCN3CCOCC3)c3ccccc23)cc1 [BIRB 796 (Doramapimod)],8315.3 AU,13140.6 AU,–,–
Oc1cc(O)cc(/C=C/c2ccc(O)c(O)c2)c1 [Piceatannol],12025.1 AU,48262.2 AU,–,–
"C[C@@H]1CCN(C(=O)CC#N)C[C@@H]1N(C)c1ncnc2[nH]ccc12 [Tofacitinib (CP-690550,Tasocitinib)]",6571.2 AU,4801.5 AU,–,–
COc1ccc(S(=O)(=O)Nc2ccccc2CN(C)C/C=C/c2ccc(Cl)cc2)cc1.O=P(O)(O)O [KN-92 phosphate],4429.3 AU,16946.8 AU,–,–
Cc1c(C(=O)N2CCOc3ccc(-c4ccc(N)nc4)cc3C2)ccc(S(C)(=O)=O)c1F [XL388],5203.5 AU,16443.4 AU,–,–
Cl.O=S(=O)(c1cccc2cnccc12)N1CCNCC1 [HA-100 (hydrochloride)],27295.9 AU,14084.7 AU,–,–
CCOc1cc(N2CCC(O)CC2)ccc1Nc1ncc2c(n1)N(C)c1ccccc1C(=O)N2C [XMD8-92],359.5 AU,30524.1 AU,–,–
FC(F)(F)c1ccc(/C=C/c2nc(COc3ccc(CCCCn4ccnn4)cc3)co2)cc1 [Mubritinib (TAK 165)],–,–,19342.6,48533.2
COc1cc2ncc(-c3ccccc3)nc2cc1OC [Tyrphostin AG 1296],2647.7 AU,18881.3 AU,–,–
O=C(Nc1ccc2[nH]nc(-c3ccncc3)c2c1)[C@@H]1CCN(CC(=O)N2CCN(c3ccc(-c4ncccn4)cc3)CC2)C1 [SCH772984],21169.8 AU,17905.7 AU,–,–
N#C/C(=C(/N)Sc1ccc(N)cc1)c1ccccc1C(F)(F)F [SL-327],10911.9 AU,24198.7 AU,–,–
C[C@@H]1CN(CC(=O)Nc2ccc3c(c2)Cc2cccc(-c4cc(=O)cc(N5CCOCC5)o4)c2S3)C[C@H](C)O1 [KU-60019],31471.9 AU,10671.9 AU,–,–
C/C(O)=C(\C#N)C(=O)Nc1cc(Br)ccc1Br [LFM-A13],60025.3 AU,42758.8 AU,–,–
C[n+]1cc2c3c(ccc2c2ccc4cc5c(cc4c21)OCO5)OCO3 [Sanguinarine],0.0 AU,895.9 AU,–,–
CCn1c(C(=O)N(C2CC2)C2CC2)cc2c3c(ncn3C)c(Nc3cc(C)n(C)n3)nc21 [BMS-911543],18362.9 AU,16684.7 AU,–,–
